Results taken from BindingDB's records for doi:10.1016/j.bmcl.2005.03.049 (Abbott Laboratories, 2005).

Target: Protein farnesyltransferase subunit beta/geranylgeranyltransferase type-1 subunit alpha (Bos taurus, UniProt P29702+P49355)
Experiment: FTase Activity Assay
Settings: pH 7.5; 37 °C
Procedure: The in vitro activity of compounds inhibiting FTase was determined by measuring the transfer of [3H]-FPP to substrate Ha-Ras-CVLS. The incorporated radioactivity was quantified by scintillation counting.

Compound: Cn1cncc1C(O)(c1ccc(Cl)cc1)c1ccc2ccn(-c3cccc4ccccc34)c2c1 (configuration not stated) [(4-chlorophenyl)(1-methyl-1H-imidazol-5-yl)[1-(naphthalen-1-yl)-1H-indol-6-yl]methanol]
- IC50: 200 nM

Compound: Cn1cncc1C(O)(c1ccc(Cl)cc1)c1ccc2ccn(-c3cccc(Cl)c3)c2c1 (configuration not stated) [(4-chlorophenyl)[1-(3-chlorophenyl)-1H-indol-6-yl](1-methyl-1H-imidazol-5-yl)methanol]
- IC50: 36 nM
